The experiment in a line: inhibitors of IL-1beta-stimulated NF-kB luciferase reporter, dose response, selectivity assay for EBV LMP1 NF-kB inhibitor project, LMP1 TES2-inducible cells, dry powder (AID 624360). In general terms: A reporter such as luciferase makes a cellular process visible.
The mark [1] stands for this setting: HEK293 IL-1beta-induced NF-kB luciferase reporter (LMP1 TES2-inducible cell line), 16 h.
Where [2] appears, read: HEK293 IL-1beta-induced NF-kB luciferase reporter (LMP1 TES2-inducible cell line), 16 h, at 26 µM (top of the series).

Records with an inconclusive call do not appear. Active and inactive are the calls of the source.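 How the source made its calls: active means fitted curve falls past -35% activity change at a concentration under twice the top valid dose, in every test run; inconclusive means test runs disagree, some active and some inactive; inactive means all test runs inactive, including signal rising instead of falling.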

`CC12CCC3C(CC=C4CC(O)CCC43CO)C1CCC2OC(=O)c1ccccc1` (centres undefined): the AC35 (HEK293, 16 h) was 3880 nM.
`COc1ccccc1[C@]1(C)ON(c2ccccc2C(F)(F)F)C1=O`: the AC35 under setting [1] was 8170 nM.
Same read-out and setting: the value for `C[C@@H]1CN([C@@H](C)CO)C(=O)c2cccc(NC(=O)Nc3cccc4ccccc34)c2O[C@H]1CN(C)C(=O)Nc1ccc(C(F)(F)F)cc1` was 11400 nM; that for `C/C=C/C/C=C/CCC(=O)[C@H]1O[C@H]1C(N)=O` was 7670 nM.
Still for that read-out and setting: then `C/C(=N\NC(=S)N1CCCCC1)c1cccc(C)n1`, with 343 nM.
Consider `COc1ccc(C(=O)Nc2ccc3[nH]ccc3c2)cc1`, for which the activity change, negative = inhibition under setting [2] was 20.3% (inactive).
On to `C/C(=N\NC(=S)N1CC2CCC(CC2)C1)c1ccccn1`, for which, under setting [1], the AC35 is 913 nM.
Consider `C[C@@H]1CCCCO[C@H](CN(C)S(=O)(=O)c2ccccc2)[C@@H](C)CN([C@@H](C)CO)C(=O)c2cc(N(C)C)ccc2O1`, for which the activity change, negative = inhibition under setting [2] is 9.13% (inactive).
For `COc1ccc2[nH]c(C(=O)N/N=C/c3ccc(O)cc3O)cc2c1`, under setting [1], the AC35 is 6480 nM.
Same read-out and setting: then `O=c1[nH]c(Nc2nc3ccccc3o2)nc2c1CCCC2`, with 107000 nM; and `C/C(=N\NC(=S)Nc1ccccc1)c1ccccn1`, with 522 nM; and `CCN1CCN(C(c2cccnc2)c2cc(Cl)c3cccnc3c2O)CC1` (centres undefined), with 5660 nM.
For the compound `C[C@@H]1CN([C@@H](C)CO)C(=O)c2cc(NC(=O)Nc3ccc4c(c3)OCO4)ccc2O[C@H]1CN(C)CC1CCCCC1`, the AC35 under setting [1] is 2700 nM.
With `C=C1C[C@]23C[C@@]1(O)CC[C@H]2[C@@]12C=C[C@H](O)[C@@](C)(C(=O)O1)[C@H]2[C@@H]3C(=O)O`, the activity change, negative = inhibition (HEK293 IL-1beta-induced NF-kB luciferase reporter (LMP1 TES2-inducible cell line), 16 h, at 15 µM (top of the series)) was 13.6% (inactive).
As to `C/C(=N\NC(=S)N1CCCC1)c1ccccn1`, the AC35 under setting [1] is 156 nM.
Same read-out and setting: then `Nc1ccn([C@@H]2O[C@H](CO)[C@@H](O)C2O)c(=O)n1` (some centres undefined), with 15800 nM.
Still for that read-out and setting: the value for `Cc1ccc(NC(=O)C2CCN(S(=O)(=O)c3ccc4c(c3)NC(=O)C(C)S4)CC2)cc1Cl` (centres undefined) was 3670 nM; that for `C[C@H](CO)N1C[C@H](C)[C@H](CN(C)C(=O)Nc2ccc(C(F)(F)F)cc2)OCCCC[C@H](C)Oc2ccc(NC(=O)Nc3ccc(F)cc3)cc2C1=O` was 7850 nM.
Same read-out and setting: the value for `Cc1cc(NC(=O)c2ccc3c(c2)OCCO3)no1` was 111000 nM.
For `Cc1c(NC(=O)c2cccc(NC(=O)COc3ccccc3C#N)c2)c(=O)n(-c2ccccc2)n1C`, the activity change, negative = inhibition under setting [2] is 14.8% (inactive).
Take `O=C1/C(=C/c2ccncc2)SC(=S)N1Cc1ccccc1`: the AC35 under setting [1] is 91500 nM.
With `c1ccc(-c2cn3c4c(sc3n2)CCCC4)cc1`, under setting [2], the activity change, negative = inhibition was 8.88% (inactive).
Same read-out and setting: the value for `CCc1ccc(/C=C2\SC(=S)N(CCCC(=O)Nc3ccccn3)C2=O)cc1` was 40.6% (inactive).
Take `C/C(=N\NC(=S)N1CCCCCC1)c1ccccn1`: the AC35 under setting [1] was 213 nM.
Regarding `C[C@@H]1CN([C@@H](C)CO)C(=O)c2cc(NC(=O)Nc3ccc(C(F)(F)F)cc3)ccc2O[C@@H](C)CCCCO[C@H]1CN(C)Cc1ccc(C(F)(F)F)cc1`, the activity change, negative = inhibition under setting [2] is 12.7% (inactive).
As for `CC(C)=CCN(C(=O)C#Cc1ccccc1)[C@H](CO)c1ccccc1`, the AC35 under setting [1] was 2500 nM.
The same measure, in the same setting: the value for `C[C@H](CO)N1C[C@H](C)[C@@H](CN(C)Cc2ccc(-c3ccccc3)cc2)Oc2ccc(NC(=O)Nc3cccc4ccccc34)cc2CC1=O` was 4640 nM.
Same read-out and setting: then `C/C(=N\NC(=S)N1CC2CCC(CC2)C1)c1cnccn1`, with 86.2 nM; and `S=C(NCc1ccccn1)N/N=C/c1ccccn1`, with 1980 nM.
As to `C[C@@H]1CCCCO[C@H](CN(C)CC2CCCCC2)[C@H](C)CN([C@@H](C)CO)C(=O)c2cc(NC(=O)NC3CCCCC3)ccc2O1`, the activity change, negative = inhibition under setting [2] is -0.708% (inactive).
On to `CCCSc1nnc2c3ccccc3n(Cc3ccccc3)c2n1`, for which the AC35 under setting [1] was 2610 nM.
Turning to `C[C@H](CO)N1C[C@H](C)[C@@H](CN(C)CC2CC2)OCCCC[C@H](C)Oc2ccc(NC(=O)Nc3cccc4ccccc34)cc2C1=O`, the AC35 under setting [1] was 1130 nM.
For the compound `COc1ccc(-c2cc3nc4n(c(=O)c3s2)CCC4)cc1`, the activity change, negative = inhibition under setting [2] was 19.5% (inactive).
As to `S=C(N/N=C(\c1ccccc1)c1ccccn1)N(Cc1ccccn1)Cc1ccccn1`, the AC35 under setting [1] is 769 nM.
Same read-out and setting: then `CCC(Sc1nnc2c3ccccc3n(Cc3ccc(Br)cc3)c2n1)C(=O)NCCCN1CCOCC1` (centres undefined), with 2710 nM; and `C/C(=N\NC(=S)N1CCC1)c1ccccn1`, with 287 nM; and `Cc1ccc(S(=O)(=O)Nc2ccc3c(c2)C(=O)N([C@@H](C)CO)C[C@H](C)[C@@H](CN(C)C(=O)CCC(F)(F)F)OCCCC[C@H](C)O3)cc1`, with 488 nM.
For `CCc1sc(C(=O)Nc2ncccc2O)cc1C`, the activity change, negative = inhibition under setting [2] was 6.99% (inactive).
For the compound `CC1CN(C(=O)CSc2nnc3c4ccccc4n(Cc4cccc(Cl)c4)c3n2)CCN1C(=O)c1ccccc1F` (centres undefined), the AC35 under setting [1] is 9280 nM.
For the compound `C=CCN1Cc2ccccc2[C@@H]2OC(c3ccc(OCCCO)cc3)=N[C@]2(CCC(=O)OC(C)(C)C)C1=O`, the activity change, negative = inhibition under setting [2] was 37.8% (inactive).
For the compound `COc1ccc2nc(Nc3nc(C)c(CCC(C)C)c(=O)[nH]3)nc(C)c2c1`, under setting [1], the AC35 is 2720 nM.
Same read-out and setting: the value for `C[C@@H]1CCCCO[C@H](CN(C)C(=O)NC2CCCCC2)[C@H](C)CN([C@@H](C)CO)C(=O)c2cc(NC(=O)C3CCCCC3)ccc2O1` was 11700 nM; that for `Fc1ccc2c(c1)c1nnc(SCCN3CCOCC3)nc1n2Cc1ccccc1` was 4490 nM.
On the same count and under the same terms, the value for `C/C(=N\NC(=S)N1CCCCC1)c1ccccn1` was 168 nM.

Values taken from PubChem BioAssay AID624360 (Broad Institute, 2012).
